Measured values as given in US20250145606A1 (Arcus Biosciences, Inc., priority 2023, published 2025).

Tests used:
c-Kit = c-Kit (Homo sapiens (Human), UniProt P10721); assay: Inhibition of c-Kit kinase activity (HTRF KinEASE-TK); assay type: biochemical; settings: biochemical, HTRF KinEASE-TK
Outline: (§1)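 Recombinant kinases (2 nM CSF1R and c-Kit, 10 nM PDGFRα/β, 2× working) preincubated 1 h with compound in 50 mM HEPES pH 7.4, 5 mM MgCl2 (c-Kit) or 10 mM (others), 2 mM MnCl2; 2× ATP: c-Kit 16 μM, PDGFRα 1 μM, PDGFRβ 40 μM, CSF1R 20 μM. 120 min reaction at rt; TR-FRET 665/620 nm; IC50 by 4-parameter fit.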

[1] = tested on: Phospho-KIT (Y703) in M07e cells; assay: Phospho-KIT (Y703) cellular assay in M07e cells; assay type: cell-based; settings: M-07e; Phospho-KIT (Y703), M07e cells; read-out: M07e Cell IC50
Method: Phospho-KIT (Y703) Cellular Assay in M07e Cells
The day prior to assay, M07e cells (DSMZ, catalog #ACC 104) were serum starved. Cells were centrifuged and cell pellet resuspended in OptiMEM (Gibco, catalog #31985062) to a density of 1×10^6-2.5×10^6 cells per mL. Cells were then incubated overnight at 5% CO2 and 37° C. in an appropriately sized flask. On the day of the experiment, an 11 point, half log titration of test compound was pre-dispensed into 96-well round bottom polypropylene plates (Corning, catalog #3365). The serum starved M07e cells were centrifuged and resuspended to a cell density of 1×10^6 cells per mL with DPBS (Gibco, catalog #14190-144). Live/Dead Green Fixable viability dye (Invitrogen, catalog #L34970) was added as 1 μL/1 mL of cell suspension. Cells were then incubated in the dark at 4° C. for 30 min. Cells were washed by centrifugation and resuspension with DPBS+0.5% BSA (Gemini Bio Products, catalog #700110/100, 30% BSA solution). Cells were resuspended, separated into two equal volumes and again centrifuged. Cell pellets were resuspended with OptiMEM™ to a cell density of 1×10^6 cells per mL. Cells were then added to the appropriate compound plate at 100,000 cells per well in 100 μL and mixed. Plates were incubated at 5% CO2 and 37° C. for 50 min. Stem Cell Factor, SCF (R&D Systems, #255-SC/CF) was diluted in OptiMEM to 1 μg/mL and added to all wells as 10 μL for a final concentration of 90.9 ng/mL. Plates were incubated at 5% CO2 and 37° C. for 10 min. Incubation was stopped by addition of 110 μL 4% paraformaldehyde solution in PBS (Life Technologies, catalog #J19943.K2). Plates were incubated at rt for at least 15 min. Plates were then centrifuged and supernatant removed by flicking. Cells were washed once by resuspension in 200 μL DPBS+0.5% BSA, centrifuged, and supernatant removed by flicking. Cells were resuspended in 100 μL 1X Permeabilization buffer (Invitrogen, catalog #88882400) and plates incubated at rt for 30 min. Plates were centrifuged, supernatant removed by flicking, and cells resuspended in 50 μL primary antibody, anti-phospho-c-KIT (Tyr703) (Cell Signaling, catalog #3073), diluted to 1 μg/mL with permeabilization buffer. Plates were incubated at rt for 1 h. Plates were centrifuged, supernatant removed, and cells resuspended with 200 μL DPBS+0.5% BSA. Plates were again centrifuged, supernatant removed by flicking, and cells resuspended in 100 μL secondary antibody, goat anti-rabbit AlexaFluor647 (AF647) (Invitrogen, catalog #A21244) diluted to 1 μg/mL with DPBS+0.5% BSA. Plates were incubated at rt for 30 min. followed by centrifugation, supernatant removal, and cell resuspension with 200 μL DPBS+0.5% BSA. Cells were washed again by centrifugation, supernatant removal, and cell resuspension with 200 μL DPBS+0.5% BSA. Samples were then read by flow cytometry. The Forward: Side scatter plot was gated and that population was gated for live cells based on the Live/Dead Green staining. The geometric mean of AF647 of the live cell population was recorded. Percentage maximum activity in each test well was calculated based on DMSO (100% activity) and positive control treated cell wells (0% activity). The potencies (IC50 values) of test compounds were determined using a standard 4-parameter non-linear regression fit.

CSF1R = CSF1R (Homo sapiens (Human), UniProt P07333); assay: Inhibition of CSF1R kinase activity (HTRF KinEASE-TK); settings: biochemical, HTRF KinEASE-TK
CSF1R, sequence (P07333 20-972): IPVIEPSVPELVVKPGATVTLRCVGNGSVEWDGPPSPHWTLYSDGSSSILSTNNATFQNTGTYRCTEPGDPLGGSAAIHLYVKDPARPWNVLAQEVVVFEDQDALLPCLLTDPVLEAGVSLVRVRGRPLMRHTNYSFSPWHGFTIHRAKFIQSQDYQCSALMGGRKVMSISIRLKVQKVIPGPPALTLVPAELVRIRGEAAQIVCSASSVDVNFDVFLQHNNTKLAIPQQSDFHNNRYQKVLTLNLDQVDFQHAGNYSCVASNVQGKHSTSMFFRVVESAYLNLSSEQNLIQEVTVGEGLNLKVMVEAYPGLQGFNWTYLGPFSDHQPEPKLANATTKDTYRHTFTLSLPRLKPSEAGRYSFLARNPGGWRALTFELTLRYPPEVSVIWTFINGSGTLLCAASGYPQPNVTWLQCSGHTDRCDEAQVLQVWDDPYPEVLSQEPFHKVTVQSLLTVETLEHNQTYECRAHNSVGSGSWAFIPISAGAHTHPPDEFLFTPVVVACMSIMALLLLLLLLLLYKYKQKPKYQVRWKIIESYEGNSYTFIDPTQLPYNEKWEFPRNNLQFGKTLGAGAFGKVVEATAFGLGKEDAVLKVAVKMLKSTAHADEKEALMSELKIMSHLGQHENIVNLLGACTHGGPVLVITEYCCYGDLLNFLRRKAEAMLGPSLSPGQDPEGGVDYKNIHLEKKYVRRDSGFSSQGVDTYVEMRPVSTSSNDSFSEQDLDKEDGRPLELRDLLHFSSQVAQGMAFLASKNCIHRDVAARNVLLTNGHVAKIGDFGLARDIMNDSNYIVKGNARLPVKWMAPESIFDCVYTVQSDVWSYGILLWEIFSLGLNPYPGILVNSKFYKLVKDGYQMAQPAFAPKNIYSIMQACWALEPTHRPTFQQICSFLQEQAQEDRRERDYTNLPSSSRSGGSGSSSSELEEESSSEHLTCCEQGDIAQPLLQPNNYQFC
Outline: as §1

c-Kit, sequence (P10721 26-976): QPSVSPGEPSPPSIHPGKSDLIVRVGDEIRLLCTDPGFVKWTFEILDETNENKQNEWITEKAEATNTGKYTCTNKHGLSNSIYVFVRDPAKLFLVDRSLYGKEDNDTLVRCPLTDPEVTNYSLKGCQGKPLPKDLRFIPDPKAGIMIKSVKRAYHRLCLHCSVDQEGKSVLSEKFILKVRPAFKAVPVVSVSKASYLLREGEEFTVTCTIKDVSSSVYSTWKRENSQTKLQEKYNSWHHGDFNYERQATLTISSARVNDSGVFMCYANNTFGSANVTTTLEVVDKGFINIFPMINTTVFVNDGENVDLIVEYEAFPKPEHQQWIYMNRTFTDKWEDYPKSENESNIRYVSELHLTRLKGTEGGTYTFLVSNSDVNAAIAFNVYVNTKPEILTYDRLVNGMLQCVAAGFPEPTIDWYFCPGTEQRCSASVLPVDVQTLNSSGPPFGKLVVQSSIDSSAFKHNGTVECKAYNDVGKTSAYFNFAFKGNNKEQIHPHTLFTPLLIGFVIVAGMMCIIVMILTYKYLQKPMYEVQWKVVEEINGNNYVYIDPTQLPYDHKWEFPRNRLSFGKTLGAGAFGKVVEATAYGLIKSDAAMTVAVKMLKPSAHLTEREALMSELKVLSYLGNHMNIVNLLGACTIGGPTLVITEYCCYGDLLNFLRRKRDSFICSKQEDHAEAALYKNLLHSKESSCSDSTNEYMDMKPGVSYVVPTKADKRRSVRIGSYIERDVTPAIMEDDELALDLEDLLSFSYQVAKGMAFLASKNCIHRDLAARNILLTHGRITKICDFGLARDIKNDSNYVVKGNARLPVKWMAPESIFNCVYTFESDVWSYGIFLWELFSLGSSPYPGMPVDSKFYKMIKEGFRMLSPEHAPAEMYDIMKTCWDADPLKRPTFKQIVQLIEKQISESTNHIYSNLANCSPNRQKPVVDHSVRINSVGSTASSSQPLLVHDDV

IC50 (c-Kit) | IC50 [1] | IC50 (CSF1R) | SMILES
< 100 nM | < 100 nM | > 1000 nM | Cc1ncc(C(=O)Nc2cc(C(=O)Nc3cccc(C(F)(F)F)n3)c(F)cc2C)s1 [Example 55, N-[4-fluoro-2-methyl-5-[[6-(trifluoromethyl)pyridin-2-yl]carbamoyl]phenyl]-2-methyl-1,3-thiazole-5-carboxamide]
< 100 nM | < 100 nM | < 100 nM | Cc1cc(F)c(C(=O)Nc2cncc(C(F)(F)F)c2)cc1NC(=O)c1cnc(N)s1 [Example 249, 2-Amino-N-[4-fluoro-2-methyl-5-[[5-(trifluoromethyl)pyridin-3-yl]carbamoyl]phenyl]-1,3-thiazole-5-carboxamide]
< 100 nM | 100 to 1000 nM | > 1000 nM | Cc1ncc(C(=O)Nc2cc(C(=O)Nc3ccnc(C(F)F)c3)c(F)cc2C)s1 [Example 22, N-[5-[[2-(Difluoromethyl)pyridin-4-yl]carbamoyl]-4-fluoro-2-methylphenyl]-2-methyl-1,3-thiazole-5-carboxamide]
< 100 nM | < 100 nM | > 1000 nM | Cc1ncc(C(=O)Nc2cc(C(=O)Nc3cncc(C(F)F)c3)c(F)cc2C)s1 [Example 76, N-[5-[[5-(difluoromethyl)pyridin-3-yl]carbamoyl]-4-fluoro-2-methylphenyl]-2-methyl-1,3-thiazole-5-carboxamide]
< 100 nM | < 100 nM | > 1000 nM | Cc1ncc(C(=O)Nc2cc(C(=O)Nc3cncc(CC4CC4)n3)c(F)cc2C)s1 [Example 34, N-[5-[[6-(cyclopropylmethyl)pyrazin-2-yl]carbamoyl]-4-fluoro-2-methylphenyl]-2-methyl-1,3-thiazole-5-carboxamide]
< 100 nM | < 100 nM | < 100 nM | Cc1cc(F)c(C(=O)Nc2cncc(C(F)F)c2)cc1NC(=O)c1cnc(N)s1 [Example 246, 2-Amino-N-[5-[[5-(difluoromethyl)pyridin-3-yl]carbamoyl]-4-fluoro-2-methylphenyl]-1,3-thiazole-5-carboxamide]
< 100 nM | 100 to 1000 nM | > 1000 nM | Cc1ncc(C(=O)Nc2cc(C(=O)Nc3cncc(C(F)(F)F)n3)c(F)cc2C)s1 [Example 33, N-[4-fluoro-2-methyl-5-[[6-(trifluoromethyl)pyrazin-2-yl]carbamoyl]phenyl]-2-methyl-1,3-thiazole-5-carboxamide]
< 100 nM | < 100 nM | > 1000 nM | Cc1ncc(C(=O)Nc2cc(C(=O)Nc3cncc(C(F)(F)F)c3)c(F)cc2C)s1 [Example 77, N-[4-fluoro-2-methyl-5-[[5-(trifluoromethyl)pyridin-3-yl]carbamoyl]phenyl]-2-methyl-1,3-thiazole-5-carboxamide]
100 to 1000 nM | < 100 nM | > 1000 nM | Cc1ncc(C(=O)Nc2cc(C(=O)N[C@H]3C[C@@H]3c3ccccc3)c(F)cc2C)s1 [Example 30, N-[4-Fluoro-2-methyl-5-[[(1S,2R)-2-phenylcyclopropyl]carbamoyl]phenyl]-2-methyl-1,3-thiazole-5-carboxamide]
100 to 1000 nM | 100 to 1000 nM | > 1000 nM | Cc1ncc(C(=O)Nc2cc(C(=O)Nc3ccc(C#N)cn3)c(F)cc2C)s1 [Example 19, N-[5-[(5-Cyanopyridin-2-yl)carbamoyl]-4-fluoro-2-methylphenyl]-2-methyl-1,3-thiazole-5-carboxamide]
100 to 1000 nM | 100 to 1000 nM | > 1000 nM | Cc1ncc(C(=O)Nc2cc(C(=O)Nc3cnc(C(F)F)cn3)c(F)cc2C)s1 [Example 56, N-[5-[[5-(difluoromethyl)pyrazin-2-yl]carbamoyl]-4-fluoro-2-methylphenyl]-2-methyl-1,3-thiazole-5-carboxamide]
< 100 nM | < 100 nM | > 1000 nM | Cc1ncc(C(=O)Nc2cc(C(=O)Nc3ccnc(OC(F)F)c3)c(F)cc2C)s1 [Example 21, N-[5-[[2-(Difluoromethoxy)pyridin-4-yl]carbamoyl]-4-fluoro-2-methylphenyl]-2-methyl-1,3-thiazole-5-carboxamide]
< 100 nM | < 100 nM | > 1000 nM | CCc1cnc(NC(=O)c2cc(NC(=O)c3cnc(C)s3)c(C)cc2F)cn1 [Example 27, N-[5-[(5-ethylpyrazin-2-yl)carbamoyl]-4-fluoro-2-methylphenyl]-2-methyl-1,3-thiazole-5-carboxamide]
< 100 nM | < 100 nM | > 1000 nM | Cc1ncc(C(=O)Nc2cc(C(=O)Nc3cnc(C(F)(F)F)cn3)c(F)cc2C)s1 [Example 29, N-[4-fluoro-2-methyl-5-[[5-(trifluoromethyl)pyrazin-2-yl]carbamoyl]phenyl]-2-methyl-1,3-thiazole-5-carboxamide]
100 to 1000 nM | 100 to 1000 nM | > 1000 nM | Cc1cc(F)c(C(=O)Nc2cccnc2C)cc1NC(=O)c1cnc(N)s1 [Example 250, 2-Amino-N-[4-fluoro-2-methyl-5-[(2-methylpyridin-3-yl)carbamoyl]phenyl]-1,3-thiazole-5-carboxamide]
< 100 nM | < 100 nM | > 1000 nM | Cc1ncc(C(=O)Nc2cc(C(=O)Nc3ccc(CC(F)(F)F)nc3)c(F)cc2C)s1 [Example 98, N-[4-fluoro-2-methyl-5-[[6-(2,2,2-trifluoroethyl)pyridin-3-yl]carbamoyl]phenyl]-2-methyl-1,3-thiazole-5-carboxamide]
< 100 nM | < 100 nM | 100 to 1000 nM | Nc1ncc(C(=O)Nc2cc(C(=O)Nc3ccc(CC(F)(F)F)cn3)c(F)cc2F)s1 [Example 221, 2-Amino-N-[2,4-difluoro-5-[[5-(2,2,2-trifluoroethyl)pyridin-2-yl]carbamoyl]phenyl]-1,3-thiazole-5-carboxamide]
< 100 nM | < 100 nM | > 1000 nM | Cc1ncc(C(=O)Nc2cc(C(=O)Nc3cncc(CC(F)(F)F)c3)c(F)cc2C)s1 [Example 81, N-[4-fluoro-2-methyl-5-[[5-(2,2,2-trifluoroethyl)pyridin-3-yl]carbamoyl]phenyl]-2-methyl-1,3-thiazole-5-carboxamide]
< 100 nM | 100 to 1000 nM | > 1000 nM | Cc1ncc(C(=O)Nc2cc(C(=O)Nc3ccnc(C#N)c3)c(F)cc2C)s1 [Example 18, N-[5-[(2-Cyanopyridin-4-yl)carbamoyl]-4-fluoro-2-methylphenyl]-2-methyl-1,3-thiazole-5-carboxamide]
< 100 nM | 100 to 1000 nM | > 1000 nM | COc1cnc(NC(=O)c2cc(NC(=O)c3cnc(C)s3)c(C)cc2F)cn1 [Example 23, N-[4-Fluoro-5-[(5-methoxypyrazin-2-yl)carbamoyl]-2-methylphenyl]-2-methyl-1,3-thiazole-5-carboxamide]
< 100 nM | < 100 nM | > 1000 nM | Cc1ncc(C(=O)Nc2cc(C(=O)Nc3cnc(C(C)C)cn3)c(F)cc2C)s1 [Example 28, N-[4-fluoro-2-methyl-5-[(5-propan-2-ylpyrazin-2-yl)carbamoyl]phenyl]-2-methyl-1,3-thiazole-5-carboxamide]
